Reference: US11415493B2, “Detection of cells in a liquid sample” (DELTA INSTRUMENTS B.V., priority 2016, dated 2022)
“Also recorded” adds a separate entry of the source. Where two headings read alike, the source gives them in different places.

How the values were obtained:
bacteria in milk samples = test: Individual bacterial count (IBC) in milk samples with different cell-impermeant dyes, flow cytometer; format: cell-based
Protocol: The nucleic acid dyes, Evagreen®, SYTOX® Green and Propidium iodide where tested against GelGreen™ (the reference method). […] Nucleic acid dyes Evagreen®, SYTOX® Green and propidium iodide were tested using the same staining and incubation conditions as for the reference method only differing in the type of dye comprised in the staining composition. Evagreen® was used at a concentration of 1.25 μM in the staining composition. SYTOX® Green and Propidium iodide were used at a concentration of 5 μM in the staining composition. Three different types of milk were used: Locally obtained raw bulk tank milk from a farm and dairy plant where collected at a local farmer. This milk is referred to as fresh raw milk and is not older than 24 hours. 24 hour and 48 hour old milk were obtained from a dairy plant. […] For this purpose E. coli was grown overnight (approx. 15 h) in TSB at 32° C. The dead bacterial where obtained by heating the grown E. coli at 110° C. for 10 minutes. An amount of 200 μl of E. coli (living or dead/damaged) is added to 45 ml fresh raw bulk milk. Both living and dead are from the same culture tube and exactly the same amount is put in the 45 ml Fresh raw milk. All the milk samples are kept at 4° C. until analyzed. […] Finally, the samples were analyzed on the flow cytometer and the fluorescent signals from the bacteria were detected and a count per unit volume was determined. […]

cells = conditions: cited from earlier work
E. coli = test: Staining E. coli culture with different nucleic acid dyes, flow cytometer counts (FL1FL2 region); format: cell-based, Escherichia coli
Protocol: First, an experiment was performed to confirm that bacterial counts obtained on the flow cytometer using GelGreen™ did correlate with traditional plate counts. For this, the Petrifilm method was selected (Standard Methods for Examination of Dairy Products 17th Edition 2004. Edited by H. M. Wehr and J. R. Frank. American Public Health Association, 800 I Street, NW, Washington D.C. 200001. Chapter 6.040), rather than a poured agar plate method, because of ease of use. Escherichia coil (E. coli) cultures were grown at 36° C. in Trypticase Soy Broth (TSB) in a culture tube. A staining composition was prepared as follows: The nucleic acid dye GelGreen™ (from Biotium) was diluted to 1× from the 10,000× commercially available stock, into Tris-buffered saline (100 mM Trizma base, 100 mM Trizma HCl, 150 mM NaCl, pH 8.5), which was preheated to 50° C. The used dilution of 1:10,000 of the GelGreen™ is in accordance with the manufacturer's recommendation for using GelGreen™ for the purpose it was intended for, namely staining DNA in an agarose gel. This is the dilution of GelGreen™ used in all the examples herein. The E. coli culture was removed from the 36° C. incubator and a small volume was diluted 1:100 into the preheated staining composition and incubated for approximately 4.5 min at 50° C. The stained E. coli was analyzed on the flow cytometer and the FL1 (Bandpass 531 nm (519-551)) and FL2 (Long pass >550 nm) fluorescence channels were used to identify the stained bacteria (FIGS. 1A and 1C). A rectangular region was defined around the positively stained cells identified as live cells in the FL1 versus FL2 2-dimensional correlation plot (FIG. 1B). A count per mL of the E. coli was obtained from the flow cytometry analysis. The E. coli culture was then diluted in TSB to obtain 3 different concentrations (1:10, 1:100 and 1:1000, respectively). The E. coli cultures were kept at 4° C. to minimize further growth until analysis. Each dilution of E. coli was stained with the GelGreen™ reagent, analyzed on the flow cytometer and counts for each dilution were obtained. Each E. coli culture was also appropriately diluted in Butterfield's PBS and 1 mL of the appropriately diluted culture was plated on Petrifilms in duplicate. The Petrifilms were placed in a 30° C. incubator, removed after 48 hrs and the colonies on each Petrifilm were counted using an automated colony counter. An average CFU/mL for each E. coli dilution was obtained. The Log of the flow cytometer bacterial counts using GelGreen™ was plotted versus the Log CFU counts from the Petrifilm (FIG. 2).
To show where the bacteria in the FL1 and FL2 signal plots can be expected, bacteria were first counted in the staining composition without adding any milk. A culture of E. coli were grown at 36° C. in Trypticase Soy Broth (TSB) in a culture tube. The nucleic acid dye GelGreen™ was diluted into Tris-buffered saline, at approximately pH 8.5, which was preheated to 50° C. The E. coli culture was removed from the 36° C. incubator and a small volume was diluted 1:100 into the preheated staining composition and incubated for approximately 4.5 min at 50° C. The stained E. coli was analyzed on the flow cytometer and the FL1 and FL2 fluorescence channels were used to identify the stained bacteria (FIG. 3A).
A culture of E. coli was grown at 36° C. in Trypticase Soy Broth (TSB), stained with GelGreen™ and counted on the flow cytometer (FIG. 5) as described in example 2. The E. coli culture was then kept at 4° C. until stained with other nucleic acid dyes. The nucleic acid dyes TOTO®-1 and SYBR® Safe (both from Thermo Fisher Scientific) were selected as alternatives. […] Both dyes have similar spectral properties to GelGreen™ and were diluted in Tris-buffered saline using the same dilution factor as GelGreen™. […]

bacteria in raw milk = test: Initial staining of bacteria in raw milk diluted in saline buffer, flow cytometer; format: cell-based
Protocol: During initial work, raw milk was diluted in a buffer solution and the cell permeant nucleic acid stain SYTO® 9 was used to stain the bacteria contained in the milk. A flow cytometer, equipped with a 488 nm laser as the light source, forward and right angle scatter detectors, and three fluorescence detectors, was used to detect the fluorescence from labeled bacteria. The three fluorescence detectors in the flow cytometer in that initial experiment had the following optical filters; 527 nm Bandpass (FL1), 590 nm Bandpass (FL2), and a 630 nm Longpass (FL3). The flow cytometer utilizes a system that provides volumetric measurement of the sample analyzed and yields a count per unit volume. […] The conclusion was that the background fluorescent signal from the various components in raw milk, and the non-specific binding of the dye to these components, dominated the signal such that it was impossible to detect any bacteria-related fluorescence. Additionally the large scatter signals detected in flow cytometry from the milk fat globules, casein micelles and other components in the milk, prevented the use of forward and right angle scatter in the detection of bacteria. To prevent the background signal, the inventors of the present invention made an attempt to minimize such interference. […]

Compound: CC[N+](C)(CC)CCC[n+]1c(-c2ccccc2)c2cc(N)ccc2c2ccc(N)cc21.[I-].[I-] [Propidium iodide]
- usefulness as alternative dye for GelGreen in the method (bacteria in milk samples; conclusion over all milk samples): does not work
- IBC counts (bacteria in milk samples; milk samples except milk spiked with E. coli and cooked, 68° C., 1 min, pH 10.6): Almost no IBC counts
- cell membrane permeability (cells): only penetrates cell membranes of dead cells

Compound: CCCN1C=C/C(=C\c2sc3ccccc3[n+]2C)c2ccccc21 [SYBR® Safe]
- staining of E. coli (E. coli; Tris-buffered saline pH 8.5, room temperature (23° C.)): does not need heating to stain E. coli
- cell membrane permeability (cells; property stated for the dye): readily crosses the membrane of cells

Compound: CN1/C(=C/c2cc[n+](CCC[N+](C)(C)CCC[N+](C)(C)CCC[n+]3ccc(/C=C4\Sc5ccccc5N4C)c4ccccc43)c3ccccc23)Sc2ccccc21.[I-].[I-].[I-].[I-] [TOTO®-1]
- staining of E. coli (E. coli; Tris-buffered saline pH 8.5, 50° C., approximately 4.5 min): minimal staining; also recorded: does not stain E. coli
- cell membrane permeability (cells; property stated for the dye): cell impermeant

Compound: SYTO® 9
- fluorescence signals of raw milk with spiked bacteria (bacteria in raw milk): identical to the fluorescence detected in raw milk without spiked bacteria
